Experimental data reported in patent US9757363B2, “SNS-595 and methods of using the same” (Sunesis Pharmaceuticals, Inc., priority 2004, dated 2017).
Like-named read-outs stand apart in the source and are kept apart here.

Experiment: Pharmacokinetics of SNS-595 in cancer patients
Assay type: in vivo, human
Settings: for AUC(0-t) / AUC(0-inf) / MRT inf / Cmax: human, intravenous
Protocol: SNS-595 was administered to enrolled patients for up to six cycles. A cycle is defined as a three-week period, with SNS-595 administered on the first day of each cycle (day 0), followed by at least 21 days of observation. SNS-595 was administered to cohorts of at least 3 patients and dose escalation occurred by sequential cohort.

[1] = 48 mg/m2, plasma, dose 48 mg/m^2
[2] = 60 mg/m2, plasma, dose 60 mg/m^2

With `CN[C@H]1CN(c2ccc3c(=O)c(C(=O)O)cn(-c4nccs4)c3n2)C[C@@H]1OC` [SNS-595, (+)-1,4-dihydro-7-[(3S,4S)-3-methoxy-4-(methylamino)-1-pyrrolidinyl]-4-oxo-1-(2-thiazoyl)-1,8-naphthyridine-3-carboxylic acid] the “relation of dose to AUC^oo” value (dose escalation by sequential cohort) was “linear”, the AUC(0-t) (3 mg/m2, plasma, dose 3 mg/m^2) was 750 ng·h/mL and the AUC(0-t) (6 mg/m2, plasma, dose 6 mg/m^2) was 2400 ng·h/mL. It also gave an AUC(0-inf) (6 mg/m2, plasma, dose 6 mg/m^2, read-out: AUCINF_obs) of 2990 ng·h/mL, an MRT inf (6 mg/m2, plasma, dose 6 mg/m^2, read-out: MRTINF_obs) of 29.1 h and an AUC(0-t) (12 mg/m2, plasma, dose 12 mg/m^2) of 5400 ng·h/mL. The MRT inf (12 mg/m2, plasma, dose 12 mg/m^2, read-out: MRTINF_obs) was 23.7 h, the AUC(0-t) (24 mg/m2, plasma, dose 24 mg/m^2) was 11100 ng·h/mL and the MRT inf (24 mg/m2, plasma, dose 24 mg/m^2, read-out: MRTINF_obs) was 21.6 h. The AUC(0-t) [1] was 21100 ng·h/mL, the Cmax [1] was 2870 ng/mL and the AUC(0-inf) (48 mg/m2, plasma, dose 48 mg/m^2, read-out: AUCINF_obs) was 27300 ng·h/mL. It also gave an MRT inf (48 mg/m2, plasma, dose 48 mg/m^2, read-out: MRTINF_obs) of 28.9 h, an AUC(0-t) [2] of 28100 ng·h/mL and a Cmax [2] of 4540 ng/mL. The AUC(0-inf) (60 mg/m2, plasma, dose 60 mg/m^2, read-out: AUCINF_obs) was 33600 ng·h/mL, the MRT inf (60 mg/m2, plasma, dose 60 mg/m^2, read-out: MRTINF_obs) was 23.7 h and the CO (plasma, dose 3 mg/m^2) was 152.25 ng/mL. The CO (plasma, dose 6 mg/m^2) was 379.69 ng/mL, the CO (plasma, dose 12 mg/m^2) was 2888.66 ng/mL and the CO (plasma, dose 24 mg/m^2) was 2924.46 ng/mL. It also gave a CO (plasma, dose 48 mg/m^2) of 1984.52 ng/mL, a Vss_obs (plasma, dose 48 mg/m^2) of 1.46 L/kg and a CO (plasma, dose 60 mg/m^2) of 4797.47 ng/mL.
